Results taken from ChEMBL document CHEMBL3045980, “Chemistry of insect antifeedants from Azadirachta indica (part 11): Characterisation and structure activity relationships of some novel rearranged azadirachtins” (1991).

How the values were obtained:
Spodoptera littoralis [1] = assay: Antifeedant activity against final stadium larval stage of Spodoptera littoralis in compound pretreated glass fibre disks assessed as mass of disks eaten at 10 ppm by choice bioassay; type: functional
Spodoptera littoralis [2] = assay: Antifeedant activity against final stadium larval stage of Spodoptera littoralis in compound pretreated glass fibre disks assessed as mass of disks eaten at 1 ppm by choice bioassay; type: functional

SMILES: C/C=C(\C)C(=O)O[C@H]1C[C@@H](OC(C)=O)[C@@]2(C(=O)OC)CO[C@H]3[C@H]4O[C@]5(C)[C@H](C6=CCOC6=O)C[C@H](O)[C@]5(O)[C@@]4(C)[C@H]4[C@]1(CO[C@]4(O)C(=O)OC)[C@@H]32
- AFI (Spodoptera littoralis [1]): 64%
- AFI (Spodoptera littoralis [2]): 41%

SMILES: C/C=C(\C)C(=O)O[C@H]1C[C@@H](O)[C@@]23CO[C@@H]4[C@@H](O)[C@]5(C)[C@@H]([C@]1(COC2=O)[C@@H]43)[C@](O)(C(=O)OC)O[C@@]51[C@H]2C[C@H]3[C@]4(C=CO[C@H]4O2)O[C@]31C
- AFI (Spodoptera littoralis [1]): 16%
- AFI (Spodoptera littoralis [2]): 22%

SMILES: C/C=C(\C)C(=O)O[C@H]1C[C@@H](OC(C)=O)[C@@]2(C(=O)OC)CO[C@H]3[C@@H](O)[C@@](C)([C@]45O[C@@]4(C)[C@H]4C[C@@H]5O[C@@H]5OCC[C@@]54O)[C@@H]4[C@@](OC)(C(=O)OC)OC[C@@]14[C@@H]32
- AFI (Spodoptera littoralis [1]): 100%
- AFI (Spodoptera littoralis [2]): 100%

SMILES: CCC(C)C(=O)O[C@H]1C[C@@H](OC(C)=O)[C@@]2(C(=O)OC)CO[C@H]3[C@@H](O)[C@@](C)([C@]45O[C@@]4(C)[C@H]4C[C@@H]5O[C@@H]5OCC[C@@]54O)[C@@H]4[C@@](OC)(C(=O)OC)OC[C@@]14[C@@H]32 (some centres undefined)
- AFI (Spodoptera littoralis [1]): 100%
- AFI (Spodoptera littoralis [2]): 98%

SMILES: C/C=C(\C)C(=O)O[C@H]1C[C@@H](OC(C)=O)[C@@]2(C(=O)OC)CO[C@H]3C(=O)[C@@](C)([C@]45O[C@@]4(C)[C@H]4C[C@@H]5O[C@@H]5OCC[C@@]54O)[C@@H]4[C@@](OC)(C(=O)OC)OC[C@@]14[C@@H]32
- AFI (Spodoptera littoralis [1]): 100%
- AFI (Spodoptera littoralis [2]): 26%

SMILES: C/C=C(\C)C(=O)O[C@H]1C[C@@H](OC(C)=O)[C@@]2(C(=O)OC)CO[C@@H]3[C@@H]2[C@]12CO[C@](OC)(C(=O)OC)[C@H]2[C@](C)([C@]12O[C@@]1(C)[C@H]1C[C@@H]2O[C@@H]2OCC[C@@]21O)[C@H]3O
- AFI (Spodoptera littoralis [1]): 46%
- AFI (Spodoptera littoralis [2]): 35%

SMILES: C/C=C(\C)C(=O)O[C@H]1C[C@@H](OC(C)=O)[C@@]2(C(=O)OC)CO[C@H]3C(=O)[C@@](C)([C@]45O[C@@]4(C)[C@H]4C[C@@H]5OC(=O)OCCC4=O)[C@@H]4[C@@](OC)(C(=O)OC)OC[C@@]14[C@@H]32
- AFI (Spodoptera littoralis [1]): 63%
- AFI (Spodoptera littoralis [2]): 61%

SMILES: C/C=C(\C)C(=O)O[C@H]1C[C@@H](OC(C)=O)[C@@]2(C(=O)OC)CO[C@H]3[C@@H](O)[C@@](C)([C@]45O[C@@]4(C)[C@H]4C[C@@H]5O[C@@H]5OCC[C@@]54OC)[C@@H]4[C@@](OC)(C(=O)OC)OC[C@@]14[C@@H]32
- AFI (Spodoptera littoralis [1]): 95%
- AFI (Spodoptera littoralis [2]): 66%

SMILES: C/C=C(\C)C(=O)O[C@H]1C[C@@H](OC(C)=O)[C@@]2(C(=O)OC)CO[C@H]3C(=O)[C@@](C)([C@]45O[C@@]4(C)[C@H]4C[C@@H]5O[C@@H]5OCC[C@@]54OC)[C@@H]4[C@@](OC)(C(=O)OC)OC[C@@]14[C@@H]32
- AFI (Spodoptera littoralis [1]): 100%
- AFI (Spodoptera littoralis [2]): 29%

SMILES: C/C=C(\C)C(=O)O[C@H]1C[C@@H](OC(C)=O)[C@@]2(C(=O)OC)CO[C@@H]3[C@@H]2[C@]12CO[C@](OC)(C(=O)OC)[C@H]2[C@@]1(C)[C@@]32O[C@H]3C[C@@H]([C@@]4(OC)CCO[C@@H]4OC)[C@@](C)(O2)[C@]31O
- AFI (Spodoptera littoralis [1]): 31%
- AFI (Spodoptera littoralis [2]): 33%

SMILES: C/C=C(\C)C(=O)O[C@H]1C[C@@H](OC(C)=O)[C@@]2(C(=O)OC)CO[C@H]3C(=O)[C@@](C)([C@]45O[C@@]4(C)[C@H]4C[C@@H]5O[C@@H]5OC=C[C@@]54O)[C@H]4[C@]1(CO[C@]4(O)C(=O)OC)[C@@H]32 [7-KETOAZADIRACHTIN]
- AFI (Spodoptera littoralis [1]): 23%
- AFI (Spodoptera littoralis [2]): 21%

SMILES: C/C=C(\C)C(=O)O[C@H]1C[C@@H](OC(C)=O)[C@@]2(C(=O)OC)CO[C@H]3[C@@H](O)[C@@](C)([C@]45O[C@@]4(C)[C@@H]4C[C@H]5O[C@@H]5OC=C[C@@]54O)[C@H]4[C@]1(CO[C@]4(O)C(=O)OC)[C@@H]32 [AZADIRACHTIN A]
- AFI (Spodoptera littoralis [1]): 100%
- AFI (Spodoptera littoralis [2]): 99%
